IC50 and IC90 data for 39 compounds are collected here from ChEMBL document CHEMBL4483862, “Open-source discovery of chemical leads for next-generation chemoprotective antimalarials” (2018).

Bounds are passed on as bounds.

The subject of the assay is Plasmodium berghei. Kind of assay: Luciferase/luciferin-expressing antifolate-resistant parasites were used to infect a culture of HepG2 cells that were pre-incubated with compounds. Infected hepatocytes emit light due to the luciferase reaction. Assay results are presented as the percent inhibition of light emission compared to control. […]. The assay is classed as functional. To be noted: sporozoite; for IC90: read-out: LUCIFERASE INFECTION ASSAY - IC90.

Setting [1] is: read-out: LUCIFERASE INFECTION ASSAY - IC50.

In the case of `O=C(CN1CC=C(c2c[nH]c3ccccc23)CC1)Nc1ccccc1OC(F)F`, the IC90 (as a rule, the concentration needed for an effect of 90%) is greater than 10 µM. Moreover, the 50% inhibitory concentration (IC50) (usually the concentration needed to halve the response being measured) (HEPG2TOX_HILL_SLOPE 99.6, HEPG2TOX_R_SQUARED 0.512, PBLUC_HILL_SLOPE 10, PBLUC_R_SQUARED 0.0817, read-out: LUCIFERASE INFECTION ASSAY - IC50) is greater than 10 µM.

As to `CN1CCN(c2ccc(NC(=O)c3cc4c(s3)-c3ccccc3CC4)cn2)CC1`, the IC90 came to 7.61 µM. In addition, for the setting “HEPG2TOX_HILL_SLOPE 13, HEPG2TOX_R_SQUARED 0.777, PBLUC_HILL_SLOPE 77.5, 23.4, PBLUC_R_SQUARED 0.0252, 0.733, read-out: LUCIFERASE INFECTION ASSAY - IC50”, the IC50 is 7.13 µM.

Regarding `c1ccc2c(NCc3ccc(N4CCCC4)nc3)ncnc2c1`, the IC90 is 3.16 µM. Besides, for the setting “HEPG2TOX_HILL_SLOPE 0.683, HEPG2TOX_R_SQUARED 0.958, PBLUC_HILL_SLOPE 1.41, PBLUC_R_SQUARED 0.701, read-out: LUCIFERASE INFECTION ASSAY - IC50”, the IC50 turned out to be 0.668 µM.

Regarding `COCCNC(=O)C1(C)CCCN(C(=O)c2ccc(OC)cc2OC)C1` (stereo not drawn), the IC90 was greater than 9.06 µM. Besides, under setting [1], the IC50 is greater than 9.06 µM.

For `CN(C)CCNc1ccnc2c(-c3ccc4ccccc4c3)cnn12`, the IC90 was greater than 9.96 µM. For the same compound, the IC50 (PBLUC_HILL_SLOPE 0.931, PBLUC_R_SQUARED 0.843, read-out: LUCIFERASE INFECTION ASSAY - IC50) amounted to 1.06 µM.

As to `CC1Cc2nc(N)nc(N)c2CC1C` (stereo not drawn), the IC90 was greater than 17.2 µM. In addition, the IC50 under setting [1] is greater than 17.2 µM.

As to `COc1ccc(CNc2ncnc3ccsc23)cc1`, the IC90 is greater than 10 µM. Also, the IC50 under setting [1] was determined as 8.88 µM.

Regarding `O=C(CSc1nncn1C1CC1)Nc1sc2c(c1C(=O)Nc1ccc(Cl)cc1)CCCC2`, the IC90 was greater than 10 µM. Further, the IC50 under setting [1] was greater than 10 µM.

As for `CC(=O)N1CCN(c2nc(CC(C)C)c3c(c2C#N)CCCC3)CC1`, the 90% effect concentration (IC90) is greater than 9.69 µM. The IC50 (FFLUC_HILL_SLOPE 6.37, FFLUC_R_SQUARED 0.032, PBLUC_HILL_SLOPE 12.2, PBLUC_R_SQUARED 0.0332, read-out: LUCIFERASE INFECTION ASSAY - IC50) worked out at 8.99 µM.

For the compound `CC(C)c1ccc(C(=O)Nc2ccccn2)cc1`, the IC90 was greater than 13.7 µM. Moreover, under “FFLUC_HILL_SLOPE 1.25, FFLUC_R_SQUARED 0.914, PBLUC_HILL_SLOPE 0.406, PBLUC_R_SQUARED 0.482, read-out: LUCIFERASE INFECTION ASSAY - IC50”, the 50% inhibitory concentration (IC50) was determined as 1.63 µM.

Consider `CC1(NC(=O)COC(=O)c2cc(Cl)c3c(c2)OCO3)CCS(=O)(=O)C1` (stereo not drawn), for which the IC90 was greater than 10 µM. For the same compound, the IC50 under setting [1] was greater than 10 µM.

For `Cc1c(Cl)cccc1/N=C1\SCCN1C(=O)C(c1ccccc1)c1ccccc1`, the IC90 is greater than 10 µM. For the same compound, the IC50 (HEPG2TOX_HILL_SLOPE 4.09, HEPG2TOX_R_SQUARED 0.235, read-out: LUCIFERASE INFECTION ASSAY - IC50) was greater than 10 µM.

Regarding `O=C(CN(Cc1ccco1)C(=O)c1ccc(-c2cccc(C(F)(F)F)c2)o1)Nc1ccccc1Br`, the IC90 was greater than 10 µM. Moreover, under setting [1], the IC50 is greater than 10 µM.

Turning to `Cc1ccc2nc(NC(=O)c3cccc(F)c3)c(C(=O)NCC(C)C)n2c1`, the IC90 amounted to 3.14 µM. The 50% inhibitory concentration (IC50) (FFLUC_HILL_SLOPE 3.07, FFLUC_R_SQUARED 0.833, HEPG2TOX_HILL_SLOPE 1.43, HEPG2TOX_R_SQUARED 0.94, PBLUC_HILL_SLOPE 3.56, PBLUC_R_SQUARED 0.485, read-out: LUCIFERASE INFECTION ASSAY - IC50) was found to be 1.69 µM.

Turning to `COC(=O)c1ccc(S(=O)(=O)N2c3ccccc3CCC2C)cc1` (stereo not drawn), the IC90 is greater than 10 µM. Further, the IC50 under setting [1] is greater than 10 µM.

As for `CCOc1ccc(C(C)=O)cc1COC(=O)c1cc(-c2cccc3ccccc23)nc2ccccc12`, the IC90 is greater than 10 µM. Besides, under “FFLUC_HILL_SLOPE 1.76, FFLUC_R_SQUARED 0.222, read-out: LUCIFERASE INFECTION ASSAY - IC50”, the IC50 is greater than 10 µM.

For the compound `Cc1[nH]c2ccccc2c1C1=NN=C(Nc2ccc(F)cc2)SC1`, the IC90 is greater than 10 µM. In addition, the IC50 (HEPG2TOX_HILL_SLOPE 10.5, HEPG2TOX_R_SQUARED 0.592, PBLUC_HILL_SLOPE 2.25, PBLUC_R_SQUARED 0.706, read-out: LUCIFERASE INFECTION ASSAY - IC50) is 5.54 µM.

Turning to `CC(C)(C)c1cc(C(c2ccccn2)N2CCCC2)cc(C(C)(C)C)c1O` (stereo not drawn), the 90% effect concentration (IC90) is greater than 10 µM. Also, under setting [1], the concentration for half-maximal inhibition (IC50) was greater than 10 µM.

Regarding `COc1cc(/C=C/C(=O)Nc2nc3c(s2)CC(C)CC3)cc(OC)c1` (stereo not drawn), the IC90 was greater than 10 µM. Under setting [1], the IC50 was greater than 10 µM.

Turning to `CSCc1cc(N2CCOCC2)nc(SCc2ccc(Cl)cc2Cl)n1`, the IC90 is greater than 7.93 µM. In addition, the IC50 under setting [1] is greater than 7.93 µM.

For the compound `Cc1nn(Cc2ccccc2Cl)c2sc(C(=O)NC3CCN(Cc4ccccc4)CC3)cc12`, the IC90 is greater than 10 µM. For the same compound, under setting [1], the IC50 was greater than 10 µM.

As for `CCCN1C(=O)/C(=N\OCC(=O)c2cc(C)n(Cc3cccs3)c2C)c2ccccc21`, the IC90 was greater than 10 µM. Also, the half-inhibitory concentration (IC50) (HEPG2TOX_HILL_SLOPE 0.794, HEPG2TOX_R_SQUARED 0.3, read-out: LUCIFERASE INFECTION ASSAY - IC50) was greater than 10 µM.

With `Cc1c(C)n(CCCN(C)C)c2ncn3nc(-c4ccc(N(C)C)cc4)nc3c12`, the IC90 was greater than 8.43 µM. Also, the IC50 (PBLUC_HILL_SLOPE 1.37, PBLUC_R_SQUARED 0.575, read-out: LUCIFERASE INFECTION ASSAY - IC50) came to 3.73 µM.

Turning to `CCN(Cc1ccccc1)S(=O)(=O)c1cc(C(=O)OCc2ccccc2Cl)ccc1OC`, the IC90 was greater than 10 µM. Moreover, the IC50 under setting [1] was greater than 10 µM.

For `CCOc1ccc(CN(C)c2cc(-c3ccccc3)c3ccccc3n2)cc1OC`, the IC90 is greater than 10 µM. Also, under setting [1], the IC50 is greater than 10 µM.

Turning to `COc1ccc(Cc2n[nH]c(Nc3cccc(Cl)c3)nc2=O)cc1`, the 90% effect concentration (IC90) was 1.36 µM. The concentration for half-maximal inhibition (IC50) under setting [1] was determined as 1.11 µM.

Consider `CC(C)N1C(=O)N(CCc2ccccc2)C2(CCN(Cc3ccccc3)CC2)C1=O`, for which the IC90 was greater than 8.14 µM. The IC50 (HEPG2TOX_HILL_SLOPE 15.6, HEPG2TOX_R_SQUARED 0.916, PBLUC_HILL_SLOPE 3.95, PBLUC_R_SQUARED 0.588, read-out: LUCIFERASE INFECTION ASSAY - IC50) was 4.99 µM.

`O=C(CSc1nnc(/C=C/c2ccc(F)cc2)[nH]1)N(c1ccccc1)C1CCCCC1`: the IC90 turned out to be 1.58 µM. Moreover, the IC50 (PBLUC_HILL_SLOPE 1.52, PBLUC_R_SQUARED 0.866, read-out: LUCIFERASE INFECTION ASSAY - IC50) was determined as 0.374 µM.

Take `CCC(C)NC(=O)c1c(NC(=O)c2cccc(F)c2)nc2ccc(C)cn12` (stereo not drawn): the 90% effect concentration (IC90) was found to be 2.91 µM. For the same compound, the IC50 (FFLUC_HILL_SLOPE 0.281, FFLUC_R_SQUARED 0.0242, HEPG2TOX_HILL_SLOPE 2.05, HEPG2TOX_R_SQUARED 0.911, PBLUC_HILL_SLOPE 3.14, PBLUC_R_SQUARED 0.667, read-out: LUCIFERASE INFECTION ASSAY - IC50) was determined as 1.45 µM.

Regarding `FC(F)(F)Oc1cccc(-c2ccc3ncc(-c4cccs4)n3n2)c1`, the IC90 is greater than 10 µM. Besides, under “PBLUC_HILL_SLOPE 2.85, PBLUC_R_SQUARED 0.222, read-out: LUCIFERASE INFECTION ASSAY - IC50”, the half-maximal inhibitory concentration (IC50) was 9.07 µM.

On to `COc1ccccc1-n1nnnc1SC(C)C(=O)Nc1ccc2[nH]c(=O)[nH]c2c1` (stereo not drawn), for which the IC90 was greater than 10 µM. Also, the IC50 under setting [1] was greater than 10 µM.

Turning to `O=C(CSCc1nc2ccccc2[nH]1)Nc1nc(-c2ccc(NC(=O)c3ccccc3)cc2)cs1`, the concentration for an effect of 90% (IC90) is greater than 10 µM. Also, the IC50 (PBLUC_HILL_SLOPE 14.9, PBLUC_R_SQUARED 0.81, read-out: LUCIFERASE INFECTION ASSAY - IC50) is 9.28 µM.

Take `O=C(NNc1ncc(C(F)(F)F)cc1Cl)c1c(Cl)cccc1Cl`: the IC90 is greater than 8.58 µM. Besides, the IC50 (HEPG2TOX_HILL_SLOPE 3.04, HEPG2TOX_R_SQUARED 0.858, PBLUC_HILL_SLOPE 3.51, PBLUC_R_SQUARED 0.0313, read-out: LUCIFERASE INFECTION ASSAY - IC50) turned out to be 6.25 µM.

For the compound `CN(C)c1ccc(C(=O)N2CCc3nc(NCc4cccc(Oc5ccccc5)c4)ncc3C2)cc1`, the concentration for an effect of 90% (IC90) was greater than 6.88 µM. The IC50 (HEPG2TOX_HILL_SLOPE 9.14, HEPG2TOX_R_SQUARED 0.261, read-out: LUCIFERASE INFECTION ASSAY - IC50) was greater than 6.88 µM.

`O=C(Nc1cccc(S(=O)(=O)NC2CC2)c1)c1cc(-c2ccccc2)nn1-c1ccccc1`: the IC90 is greater than 10 µM. Moreover, the IC50 (HEPG2TOX_HILL_SLOPE 3.71, HEPG2TOX_R_SQUARED 0.26, read-out: LUCIFERASE INFECTION ASSAY - IC50) is greater than 10 µM.

On to `CC1CCc2[nH]c3ccc(C(=O)Nc4ccccc4N4CCCCC4)cc3c2C1` (stereo not drawn), for which the IC90 stood at 0.818 µM. For the same compound, the half-maximal inhibitory concentration (IC50) (FFLUC_HILL_SLOPE 10.4, FFLUC_R_SQUARED 0.246, PBLUC_HILL_SLOPE 2.51, PBLUC_R_SQUARED 0.903, read-out: LUCIFERASE INFECTION ASSAY - IC50) worked out at 0.341 µM.

For `COc1cc(CNc2nccc3nc(-c4ccccc4Cl)[nH]c23)cc(OC)c1OC`, the IC90 was greater than 10 µM. In addition, under setting [1], the IC50 was 8.57 µM.

As for `CS(=O)(=O)N1CCCc2cc(-c3csc(Nc4ccccn4)n3)ccc21`, the IC90 stood at 2.51 µM. Further, for the setting “HEPG2TOX_HILL_SLOPE 15.9, HEPG2TOX_R_SQUARED 0.84, PBLUC_HILL_SLOPE 1.6, PBLUC_R_SQUARED 0.55, read-out: LUCIFERASE INFECTION ASSAY - IC50”, the IC50 was 0.637 µM.

In the case of `CC(C)c1nc(N2CCN(CC(=O)N3CCCC3)CC2)c(C#N)c2c1CCC2`, the IC90 worked out at 2.94 µM. Also, the IC50 (FFLUC_HILL_SLOPE 13.3, FFLUC_R_SQUARED 0.232, PBLUC_HILL_SLOPE 4.16, PBLUC_R_SQUARED 0.67, read-out: LUCIFERASE INFECTION ASSAY - IC50) came out at 1.73 µM.
